Publication PMC7724566, “Prospects for Clinical Development of Stat5 Inhibitor IST5-002: High Transcriptomic Specificity in Prostate Cancer and Low Toxicity In Vivo” (Cancers, 2020)

Legend:
[1] = molecular target: T1, Stat5 (Homo sapiens, UniProt P42229); assay: Native-gel-based Stat5 dimerization assay, CWR22Rv1 cells; format: cell-based; settings: 1 µM, 6 h, Prl (10 nM) stimulated CWR22Rv1 cells, STAT5A-eYFP
T1 construct: expressed in transfected cells; host or cells: CWR22Rv1
From the text: Having established that IST5 and IST5-M both interrupt phosphorylation of Stat5, we next investigated the potency of IST5-M vs. IST5 in suppressing dimerization of Stat5 in PC cells. First, we performed a native Polyacrylamide Gel Electrophoresis (PAGE) based Stat5 dimerization assay established originally by Fahrenkamp et al., where CWR22Rv1 cells were transfected with STAT5A-eYFP (Stat5 wild type), STAT5A-N642H-eYFP (constitutive activated Stat5 by N642H mutation, as a positive control) or STAT3-eYFP (Stat3 wild type, as a negative control) constructs for 3 days (Figure 5A). CWR22Rv1 cells were starved for 16 h, pretreated with vanadate (1 mM) for 2 h, followed by treatment with vehicle, IST5 or IST5-M (1 µM) for 6 h and stimulation with Prl (10 nM) for 1 h.
Figure 5 Both IST5 and IST5-M suppress dimerization of Stat5 with similar efficacies in prostate cancer cells. (A), IST5 and IST5-M inhibit equally potently dimerization of Stat5 in native-gel-based Stat5 dimerization assay. […] Dimerization of Stat5 was analyzed by detection of the eYFP fluorescence of the native Coomassie gel. […] (E), differences in posttranslational modifications were detected between native and recombinant STAT5a using mass spectrometry. Native STAT5a from CWR22Rv1 cells and recombinant STAT5a from E. coli were gel-purified, digested using trypsin, and analyzed by bottom-up mass spectrometry. […]

[2] = system: Stat5; assay: Ligand-induced Stat5 dimerization, two cell-based assays (summary); set-up: species or system human; settings: read-out: IC50, suppression of ligand-induced Stat5 dimerization; both cell-based dimerization assays
From the text: Down-regulation of Stat5 phosphorylation by IST5 can theoretically be caused by IST5 blocking Stat5 monomer docking to the activated receptor-Jak2 complex (Figure 1) and/or by IST5 inhibition of Jak2 kinase activity. […] To further investigate whether IST5 is able to disrupt dimerization of Stat5 molecules, we employed two separate cell-based assays. […] Because both phosphorylation and dimerization of Stat5 were inhibited at similar concentrations of IST5, it is difficult to determine whether disruption of Stat5 dimerization by IST5 is caused by suppression of Stat5 phosphorylation or a direct effect of IST5 in hindering Stat5 dimer-formation or both events occurring at the same time in the cell. However, it is known that heteromolecular interactions are easier to disrupt than interactions between two Stat5 monomers implying that the primary mechanism of action of IST5 may be suppression of Stat5 docking to the receptor-kinase complex. It is important to note that bypassing tyrosine kinases responsible for Stat5 phosphorylation by utilizing direct Stat5 inhibitor would be advantageous for therapy development for Stat5-regulated cancers because targeting Stat5 directly is likely to cause less off-target side effects than targeting kinases or cell surface receptors.

[3] = molecular target: T2, CAMKK2 (Homo sapiens, UniProt Q96RR4); assay: Kinase Seeker luminescence cell-free assay; format: binding; settings: percent activity of kinase after exposure to IST5 1 µM
T2 construct: purchased Reaction Biology (JAK1/2/3, TYK2); Luceome Biotechnologies KinaseSeeker (others)
T2 sequence (Q96RR4 whole entry): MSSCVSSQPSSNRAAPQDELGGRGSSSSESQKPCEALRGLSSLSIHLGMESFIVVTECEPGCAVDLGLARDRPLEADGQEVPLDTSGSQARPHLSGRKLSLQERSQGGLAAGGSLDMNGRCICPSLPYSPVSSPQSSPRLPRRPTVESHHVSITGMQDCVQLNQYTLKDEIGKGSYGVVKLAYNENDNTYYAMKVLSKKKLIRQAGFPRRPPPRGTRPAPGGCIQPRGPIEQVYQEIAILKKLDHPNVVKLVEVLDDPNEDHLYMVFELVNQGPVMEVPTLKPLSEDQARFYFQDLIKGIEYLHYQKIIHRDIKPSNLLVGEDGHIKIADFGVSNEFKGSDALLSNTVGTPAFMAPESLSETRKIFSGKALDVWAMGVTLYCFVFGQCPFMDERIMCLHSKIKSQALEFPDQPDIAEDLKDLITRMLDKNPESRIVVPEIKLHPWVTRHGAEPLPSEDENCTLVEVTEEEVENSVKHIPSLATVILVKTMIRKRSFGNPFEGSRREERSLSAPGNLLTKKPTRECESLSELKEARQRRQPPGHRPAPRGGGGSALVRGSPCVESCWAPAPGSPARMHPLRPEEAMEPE
Experimental: (§1) For Jak1, Jak2, Jak3 and Tyk2, a radiometric filtration binding assay was conducted by Reaction Biologicals (Malvern, PA, USA) (Table 1). This radiometric assay is a cell-free assay which is based on conventional filter-binding assays, directly measuring kinase catalytic activity toward a specific substrate. For evaluation of the activity of the other kinases, the Kinase Seeker Technology was utilized (Luceome Biotechnologies, Tucson, AZ, USA), which is a luminescence-based cell-free assay. In this assay, the reassembly of luciferase fragments is mediated by the interaction of a kinase with an active site-dependent probe. The competitive displacement of the probe by an inhibitor is measured by a change in luminescence signal. Percent activity of each kinase after exposure to IST5 (1 µM) is presented.

[4] = molecular target: T3, INSR (Homo sapiens, UniProt P06213); assay: Kinase Seeker luminescence cell-free assay; format: binding; settings: percent activity of kinase after exposure to IST5 1 µM
T3 construct: purchased Reaction Biology (JAK1/2/3, TYK2); Luceome Biotechnologies KinaseSeeker (others)
T3 sequence (P06213 28-1382): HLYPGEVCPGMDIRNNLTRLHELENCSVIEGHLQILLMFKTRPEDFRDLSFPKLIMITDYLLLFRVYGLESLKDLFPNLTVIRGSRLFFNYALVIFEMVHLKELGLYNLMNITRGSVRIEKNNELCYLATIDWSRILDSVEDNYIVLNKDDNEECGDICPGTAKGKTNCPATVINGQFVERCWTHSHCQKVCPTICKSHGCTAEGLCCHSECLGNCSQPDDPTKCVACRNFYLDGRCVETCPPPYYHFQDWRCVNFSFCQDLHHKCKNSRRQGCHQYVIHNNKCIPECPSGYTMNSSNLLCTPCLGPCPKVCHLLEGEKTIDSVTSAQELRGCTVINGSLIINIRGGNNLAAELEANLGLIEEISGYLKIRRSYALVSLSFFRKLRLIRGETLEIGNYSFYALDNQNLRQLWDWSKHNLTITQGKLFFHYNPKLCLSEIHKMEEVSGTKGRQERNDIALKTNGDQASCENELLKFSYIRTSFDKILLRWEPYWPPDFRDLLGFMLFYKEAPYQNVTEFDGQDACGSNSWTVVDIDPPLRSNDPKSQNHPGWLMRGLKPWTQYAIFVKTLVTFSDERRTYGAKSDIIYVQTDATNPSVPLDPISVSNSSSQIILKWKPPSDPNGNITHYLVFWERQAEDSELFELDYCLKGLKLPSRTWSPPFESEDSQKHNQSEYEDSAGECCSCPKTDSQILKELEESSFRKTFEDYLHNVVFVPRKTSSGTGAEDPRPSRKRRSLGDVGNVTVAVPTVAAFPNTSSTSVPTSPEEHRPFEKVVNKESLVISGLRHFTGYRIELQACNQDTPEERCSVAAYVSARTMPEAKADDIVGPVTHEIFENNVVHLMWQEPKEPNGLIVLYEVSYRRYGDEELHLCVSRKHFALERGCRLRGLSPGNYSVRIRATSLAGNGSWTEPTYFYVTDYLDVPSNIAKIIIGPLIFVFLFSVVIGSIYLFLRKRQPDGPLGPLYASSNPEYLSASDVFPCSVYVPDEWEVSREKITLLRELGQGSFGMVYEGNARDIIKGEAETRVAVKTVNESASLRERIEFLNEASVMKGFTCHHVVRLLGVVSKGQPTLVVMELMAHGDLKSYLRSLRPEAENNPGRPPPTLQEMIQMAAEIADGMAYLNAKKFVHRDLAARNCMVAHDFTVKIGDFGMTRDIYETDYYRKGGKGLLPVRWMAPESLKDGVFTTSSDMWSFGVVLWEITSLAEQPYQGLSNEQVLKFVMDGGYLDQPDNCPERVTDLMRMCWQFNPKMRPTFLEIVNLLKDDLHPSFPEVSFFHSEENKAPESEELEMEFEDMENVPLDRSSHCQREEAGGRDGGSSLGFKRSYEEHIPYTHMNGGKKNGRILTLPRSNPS
Experimental: as §1

[5] = molecular target: T4, VEGFR2 (Homo sapiens, UniProt P35968); assay: Kinase Seeker luminescence cell-free assay; format: binding; settings: percent activity of kinase after exposure to IST5 1 µM
T4 construct: purchased Reaction Biology (JAK1/2/3, TYK2); Luceome Biotechnologies KinaseSeeker (others)
T4 sequence (P35968 20-1356): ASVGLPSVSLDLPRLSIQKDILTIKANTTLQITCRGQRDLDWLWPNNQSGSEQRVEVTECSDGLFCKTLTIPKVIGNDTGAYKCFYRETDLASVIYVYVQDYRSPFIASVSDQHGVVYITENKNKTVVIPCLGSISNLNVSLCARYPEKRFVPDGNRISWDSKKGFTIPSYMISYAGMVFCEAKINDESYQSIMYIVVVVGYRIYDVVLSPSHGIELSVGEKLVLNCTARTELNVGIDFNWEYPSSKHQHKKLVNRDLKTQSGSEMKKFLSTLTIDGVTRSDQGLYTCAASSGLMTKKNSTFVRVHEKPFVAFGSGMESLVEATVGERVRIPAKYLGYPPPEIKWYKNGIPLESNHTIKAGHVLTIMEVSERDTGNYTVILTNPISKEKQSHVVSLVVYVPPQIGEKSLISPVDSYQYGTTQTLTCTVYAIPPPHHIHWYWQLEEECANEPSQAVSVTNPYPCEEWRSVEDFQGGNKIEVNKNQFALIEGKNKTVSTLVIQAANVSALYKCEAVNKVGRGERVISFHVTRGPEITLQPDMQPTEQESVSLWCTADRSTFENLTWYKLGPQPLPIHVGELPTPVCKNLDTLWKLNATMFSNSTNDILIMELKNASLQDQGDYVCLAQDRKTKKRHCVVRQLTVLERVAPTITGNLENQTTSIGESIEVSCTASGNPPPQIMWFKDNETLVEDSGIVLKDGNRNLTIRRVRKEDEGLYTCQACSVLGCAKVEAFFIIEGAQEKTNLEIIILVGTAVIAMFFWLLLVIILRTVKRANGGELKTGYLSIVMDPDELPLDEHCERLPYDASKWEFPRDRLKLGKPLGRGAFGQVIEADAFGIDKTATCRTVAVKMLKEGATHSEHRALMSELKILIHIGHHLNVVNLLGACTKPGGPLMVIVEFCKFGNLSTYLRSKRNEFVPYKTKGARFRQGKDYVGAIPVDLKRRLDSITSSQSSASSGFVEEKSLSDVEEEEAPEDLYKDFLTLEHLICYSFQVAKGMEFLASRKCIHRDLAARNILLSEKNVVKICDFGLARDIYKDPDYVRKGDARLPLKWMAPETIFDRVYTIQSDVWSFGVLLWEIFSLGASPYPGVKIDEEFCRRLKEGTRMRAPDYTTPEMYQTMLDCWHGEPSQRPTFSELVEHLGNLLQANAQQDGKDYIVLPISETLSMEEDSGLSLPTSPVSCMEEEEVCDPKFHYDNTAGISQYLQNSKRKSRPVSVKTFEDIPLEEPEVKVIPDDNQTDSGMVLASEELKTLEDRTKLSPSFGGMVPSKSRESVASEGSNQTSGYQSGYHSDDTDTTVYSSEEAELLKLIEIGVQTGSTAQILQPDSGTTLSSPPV
Experimental: as §1

[6] = system: PC cells; set-up: method as in PMID 18316550, PMID 23942095, PMID 26362718, PMID 20966544, PMID 20233708; settings: cited from earlier work

T1 sequence (P42229 whole entry, species assumed): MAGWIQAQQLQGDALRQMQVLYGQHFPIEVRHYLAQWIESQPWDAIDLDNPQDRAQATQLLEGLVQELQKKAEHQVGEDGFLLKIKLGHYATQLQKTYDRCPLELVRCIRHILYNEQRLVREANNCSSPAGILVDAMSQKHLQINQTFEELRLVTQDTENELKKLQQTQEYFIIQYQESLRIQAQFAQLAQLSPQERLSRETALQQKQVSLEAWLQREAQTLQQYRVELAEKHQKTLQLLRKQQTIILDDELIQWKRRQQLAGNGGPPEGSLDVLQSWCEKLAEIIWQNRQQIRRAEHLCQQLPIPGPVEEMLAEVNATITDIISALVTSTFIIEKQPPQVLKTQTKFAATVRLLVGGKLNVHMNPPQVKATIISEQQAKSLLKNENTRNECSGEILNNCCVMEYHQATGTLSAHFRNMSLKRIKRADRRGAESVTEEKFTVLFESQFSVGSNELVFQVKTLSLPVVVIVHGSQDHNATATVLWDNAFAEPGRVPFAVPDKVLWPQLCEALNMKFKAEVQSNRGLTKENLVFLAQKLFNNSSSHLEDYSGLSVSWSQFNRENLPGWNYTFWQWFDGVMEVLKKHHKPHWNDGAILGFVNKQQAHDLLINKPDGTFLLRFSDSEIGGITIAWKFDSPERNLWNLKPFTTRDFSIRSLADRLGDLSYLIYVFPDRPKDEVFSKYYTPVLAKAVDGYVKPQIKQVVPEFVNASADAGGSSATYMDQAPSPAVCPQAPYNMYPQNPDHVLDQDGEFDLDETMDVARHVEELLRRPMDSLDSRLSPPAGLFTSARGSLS

In the case of `O=P(O)(O)OCC1OC(n2cnc3c(NCc4ccccc4)ncnc32)C(O)C1O` (stereo not drawn) [IST5], the “inhibition of Stat5 dimerization” value [1] is reported as “inhibited robustly”, the IC50 [2] is reported as 1000 to 1300 nM and the Activity [3] is reported as 100.0%. The Activity [4] was 91.0%, the Activity [5] was 89.1% and the “apoptotic death of PC cells” value [6] was “induce extensive apoptotic death”.
